What all share (conditions): 18 h
The test system of experiment [1] is HEK293T-Rex ERSE-FLuc. Kind of experiment: maximal ERSE-FLuc activation from dose-response fit, relative to thapsigargin (% of thapsigargin); higher = stronger activation. As to the method: (§1)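 Dose-response of hit compounds in HEK293T-Rex cells stably expressing ERSE-FLuc or XBP1-RLuc reporters, 18 hr treatment, 1536-well; luminescence normalised to 500 nM thapsigargin (100%) and DMSO (0%), fitted to give EC50 (M) and maximal activation; '>' marks EC50 above the top tested dose (~17 µM).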

In experiment [2] the test system is HEK293T-Rex XBP1-RLuc. As to the kind of experiment: EC50 for XBP1-RLuc reporter activation. As to the method:
as §1

Experiment [3] relates to HEK293T-Rex ERSE-FLuc. As to the kind of experiment: EC50 for ERSE-FLuc reporter activation. On the procedure:
as §1

The test system of experiment [4] is HEK293T-Rex XBP1-RLuc. Kind of experiment: maximal XBP1-RLuc activation from dose-response fit, relative to thapsigargin (% of thapsigargin); higher = stronger activation. On the procedure: as §1

The structures appear in SMILES notation. ± gives the uncertainty stated by the source.

In the case of `OCCNc1nc(Nc2ccc(Br)cc2)nc2ccccc12`, in the experiment on HEK293T-Rex ERSE-FLuc [1], the “maximal ERSE-FLuc activation” value worked out at 132 ± 7.4. In addition, the “EC50 for XBP1-RLuc reporter activation” value with HEK293T-Rex XBP1-RLuc [2] was 7.94 µM. Further, the “EC50 for ERSE-FLuc reporter activation” value in the experiment with HEK293T-Rex ERSE-FLuc [3] was 4.93 µM. Further, in the experiment on HEK293T-Rex XBP1-RLuc [4], the “maximal XBP1-RLuc activation” value is 57 ± 8.1.

With `Nc1ccc2nc(/C=C/c3ccccc3)[nH]c2c1`, in the experiment on HEK293T-Rex ERSE-FLuc [1], the “maximal ERSE-FLuc activation” value came to 34.4 ± 4.7. For the same molecule, in the experiment with HEK293T-Rex XBP1-RLuc [2], the “EC50 for XBP1-RLuc reporter activation” value was > 15.3 µM. The “EC50 for ERSE-FLuc reporter activation” value in the experiment with HEK293T-Rex ERSE-FLuc [3] is > 15.3 µM. In addition, the “maximal XBP1-RLuc activation” value in the experiment with HEK293T-Rex XBP1-RLuc [4] stood at 23.8 ± 1.7.

As to `O=C(/C=C/c1ccco1)Nc1ccc(Br)cc1Cl`, in the experiment on HEK293T-Rex ERSE-FLuc [1], the “maximal ERSE-FLuc activation” value was 23.5 ± 2.5. Also, the “EC50 for XBP1-RLuc reporter activation” value in the experiment with HEK293T-Rex XBP1-RLuc [2] was > 16.9 µM. Further, in the experiment with HEK293T-Rex ERSE-FLuc [3], the “EC50 for ERSE-FLuc reporter activation” value is > 16.9 µM. In addition, the “maximal XBP1-RLuc activation” value in the experiment with HEK293T-Rex XBP1-RLuc [4] stood at 4.5 ± 6.9.

On to `Cc1ccc2nc(/C(C#N)=C/c3ccc(O)c(O)c3)[nH]c2c1`, for which the “maximal ERSE-FLuc activation” value in the experiment with HEK293T-Rex ERSE-FLuc [1] was found to be 23.4 ± 2.9. Moreover, the “EC50 for XBP1-RLuc reporter activation” value with HEK293T-Rex XBP1-RLuc [2] is > 16.9 µM. For the same molecule, the “EC50 for ERSE-FLuc reporter activation” value in the experiment on HEK293T-Rex ERSE-FLuc [3] is > 16.9 µM. Also, the “maximal XBP1-RLuc activation” value in the experiment with HEK293T-Rex XBP1-RLuc [4] stood at 19.7 ± 5.9.

`O=C(N/N=C/c1ccc(O)c(O)c1)c1cccc(Cl)c1`: in the experiment with HEK293T-Rex ERSE-FLuc [1], the “maximal ERSE-FLuc activation” value came to 69.2 ± 4.9. Moreover, the “EC50 for XBP1-RLuc reporter activation” value in the experiment on HEK293T-Rex XBP1-RLuc [2] is > 16.9 µM. Further, the “EC50 for ERSE-FLuc reporter activation” value in the experiment with HEK293T-Rex ERSE-FLuc [3] came to 13.6 µM. Further, the “maximal XBP1-RLuc activation” value with HEK293T-Rex XBP1-RLuc [4] was 29.3 ± 2.4.

`O=c1[nH]c(COc2ccccc2)nc2sc3c(c12)CCCC3`: in the experiment on HEK293T-Rex ERSE-FLuc [1], the “maximal ERSE-FLuc activation” value stood at 23.3 ± 2.4. Also, the “EC50 for XBP1-RLuc reporter activation” value in the experiment with HEK293T-Rex XBP1-RLuc [2] was > 16.3 µM. Besides, the “EC50 for ERSE-FLuc reporter activation” value in the experiment with HEK293T-Rex ERSE-FLuc [3] is > 16.3 µM. The “maximal XBP1-RLuc activation” value in the experiment with HEK293T-Rex XBP1-RLuc [4] was determined as 6.01 ± 1.1.

`Cc1cnc(NC(=O)c2sc3nc4c(C)cccc4cc3c2N)s1`: the “maximal ERSE-FLuc activation” value with HEK293T-Rex ERSE-FLuc [1] is 58.9 ± 6.1. The “EC50 for XBP1-RLuc reporter activation” value with HEK293T-Rex XBP1-RLuc [2] stood at 6.88 µM. Besides, the “EC50 for ERSE-FLuc reporter activation” value in the experiment with HEK293T-Rex ERSE-FLuc [3] was 11.5 µM. The “maximal XBP1-RLuc activation” value with HEK293T-Rex XBP1-RLuc [4] stood at 96.9 ± 3.6.

Regarding `O=c1[nH]c(/C=C2\C=Nc3ccccc32)c(O)n1-c1cccc(Cl)c1`, in the experiment with HEK293T-Rex ERSE-FLuc [1], the “maximal ERSE-FLuc activation” value was 67.9 ± 1. Further, the “EC50 for XBP1-RLuc reporter activation” value with HEK293T-Rex XBP1-RLuc [2] is 2.18 µM. Besides, the “EC50 for ERSE-FLuc reporter activation” value in the experiment on HEK293T-Rex ERSE-FLuc [3] stood at 2.5 µM. For the same molecule, the “maximal XBP1-RLuc activation” value in the experiment with HEK293T-Rex XBP1-RLuc [4] was determined as 74.9 ± 7.7.

Consider `C=CCNC(=O)c1cc(-c2cccs2)on1`, for which the “maximal ERSE-FLuc activation” value in the experiment with HEK293T-Rex ERSE-FLuc [1] is 124 ± 2.7. The “EC50 for XBP1-RLuc reporter activation” value in the experiment with HEK293T-Rex XBP1-RLuc [2] was > 16.9 µM. Also, the “EC50 for ERSE-FLuc reporter activation” value in the experiment on HEK293T-Rex ERSE-FLuc [3] amounted to 5.28 µM. Besides, in the experiment on HEK293T-Rex XBP1-RLuc [4], the “maximal XBP1-RLuc activation” value is 12.8 ± 0.79.

Turning to `O=[N+]([O-])c1ccccc1N/N=C/c1ccc(O)c(O)c1`, the “maximal ERSE-FLuc activation” value with HEK293T-Rex ERSE-FLuc [1] was 38 ± 11. In addition, the “EC50 for XBP1-RLuc reporter activation” value in the experiment on HEK293T-Rex XBP1-RLuc [2] was > 16.9 µM. In addition, in the experiment on HEK293T-Rex ERSE-FLuc [3], the “EC50 for ERSE-FLuc reporter activation” value is > 16.9 µM. Besides, in the experiment on HEK293T-Rex XBP1-RLuc [4], the “maximal XBP1-RLuc activation” value amounted to 43.4 ± 3.5.

As for `CCCCNc1ncnc2c1cnn2-c1ccc(Cl)cc1`, the “maximal ERSE-FLuc activation” value with HEK293T-Rex ERSE-FLuc [1] amounted to 25.4 ± 3. The “EC50 for XBP1-RLuc reporter activation” value in the experiment with HEK293T-Rex XBP1-RLuc [2] is > 19.5 µM. Also, the “EC50 for ERSE-FLuc reporter activation” value with HEK293T-Rex ERSE-FLuc [3] is > 19.5 µM. Further, the “maximal XBP1-RLuc activation” value in the experiment with HEK293T-Rex XBP1-RLuc [4] is 2.05 ± 1.1.

Regarding `O=C(N/N=C/c1ccc(Cl)cc1Cl)c1ccc(O)c(O)c1`, the “maximal ERSE-FLuc activation” value in the experiment on HEK293T-Rex ERSE-FLuc [1] amounted to 32.6 ± 8. In addition, the “EC50 for XBP1-RLuc reporter activation” value in the experiment on HEK293T-Rex XBP1-RLuc [2] is > 16.9 µM. In the experiment with HEK293T-Rex ERSE-FLuc [3], the “EC50 for ERSE-FLuc reporter activation” value is > 16.9 µM. In addition, the “maximal XBP1-RLuc activation” value with HEK293T-Rex XBP1-RLuc [4] was 47 ± 2.7.

In the case of `CCOc1cccc(/C=C2\NC(=S)N(C)C2=O)c1O`, the “maximal ERSE-FLuc activation” value in the experiment with HEK293T-Rex ERSE-FLuc [1] was 6.21 ± 2. Also, in the experiment with HEK293T-Rex XBP1-RLuc [2], the “EC50 for XBP1-RLuc reporter activation” value is > 16.9 µM. For the same molecule, in the experiment with HEK293T-Rex ERSE-FLuc [3], the “EC50 for ERSE-FLuc reporter activation” value was > 16.9 µM. Besides, the “maximal XBP1-RLuc activation” value with HEK293T-Rex XBP1-RLuc [4] came out at 0.0882 ± 1.7.

Consider `Cc1ccc(O)c(NC(=O)c2cc(-c3ccc(F)cc3)on2)c1`, for which the “maximal ERSE-FLuc activation” value with HEK293T-Rex ERSE-FLuc [1] is 31 ± 7.9. For the same molecule, the “EC50 for XBP1-RLuc reporter activation” value in the experiment on HEK293T-Rex XBP1-RLuc [2] is > 16.9 µM. Besides, the “EC50 for ERSE-FLuc reporter activation” value with HEK293T-Rex ERSE-FLuc [3] was > 16.9 µM. For the same molecule, the “maximal XBP1-RLuc activation” value in the experiment on HEK293T-Rex XBP1-RLuc [4] came out at 18.8 ± 3.2.

Take `COc1cccc(C(=O)/C=C/Nc2cc(C)ccc2O)c1`: the “maximal ERSE-FLuc activation” value in the experiment on HEK293T-Rex ERSE-FLuc [1] is 229 ± 0.77. Further, the “EC50 for XBP1-RLuc reporter activation” value in the experiment on HEK293T-Rex XBP1-RLuc [2] worked out at 6.99 µM. Besides, the “EC50 for ERSE-FLuc reporter activation” value in the experiment on HEK293T-Rex ERSE-FLuc [3] turned out to be 4 µM. Besides, the “maximal XBP1-RLuc activation” value in the experiment on HEK293T-Rex XBP1-RLuc [4] turned out to be 72.5 ± 3.2.

Take `N#Cc1c(NC(=O)c2ccc3c(c2)OCO3)sc2c1CCCC2`: the “maximal ERSE-FLuc activation” value in the experiment on HEK293T-Rex ERSE-FLuc [1] is 18.3 ± 3.2. Besides, the “EC50 for XBP1-RLuc reporter activation” value in the experiment on HEK293T-Rex XBP1-RLuc [2] was > 16.9 µM. Also, the “EC50 for ERSE-FLuc reporter activation” value in the experiment with HEK293T-Rex ERSE-FLuc [3] is > 16.9 µM. For the same molecule, the “maximal XBP1-RLuc activation” value in the experiment with HEK293T-Rex XBP1-RLuc [4] turned out to be 1.79 ± 3.7.

As for `N#C/C(=C/c1ccc(O)c(O)c1)c1nc2ccccc2[nH]1`, the “maximal ERSE-FLuc activation” value in the experiment on HEK293T-Rex ERSE-FLuc [1] is 29 ± 5.2. In addition, the “EC50 for XBP1-RLuc reporter activation” value in the experiment on HEK293T-Rex XBP1-RLuc [2] is > 16.9 µM. The “EC50 for ERSE-FLuc reporter activation” value in the experiment with HEK293T-Rex ERSE-FLuc [3] was > 16.9 µM. In the experiment with HEK293T-Rex XBP1-RLuc [4], the “maximal XBP1-RLuc activation” value was 20.7 ± 5.2.

In the case of `CCOc1ccc2nc(NC(=O)c3ccn(C)n3)sc2c1`, the “maximal ERSE-FLuc activation” value in the experiment with HEK293T-Rex ERSE-FLuc [1] was determined as 10.9 ± 2.4. Further, the “EC50 for XBP1-RLuc reporter activation” value with HEK293T-Rex XBP1-RLuc [2] was > 14.4 µM. Further, the “EC50 for ERSE-FLuc reporter activation” value in the experiment with HEK293T-Rex ERSE-FLuc [3] is > 14.4 µM. The “maximal XBP1-RLuc activation” value with HEK293T-Rex XBP1-RLuc [4] amounted to 4.53 ± 2.8.

Source of the values: the supplement of paper PMC4954754.
